In patent publication US20250136617A1 (The Regents of the University of Colorado, A Body Corporate, priority 2022, published 2025):
Entries after “also recorded” stand apart in the source; their conditions may differ. Like-named read-outs stand apart in the source and are kept apart here.

Target: CXCR4 (Homo sapiens, UniProt P61073)
Assay: Adenylate cyclase (cAMP inhibition) assay, thiadiazine scaffold, CHO-CXCR4-cAMP cells
Assay type: cell-based
Set-up: host or cells: CHO-K1
Experimental: Tango™ CXCR4-bla U2OS Cells (Invitrogen; K1779) were used for (β-arrestin recruitment assays and maintained as a monolayer culture in McCoy's 5a (Corning; 10-050-CV) supplemented with 10% dialyzed Fetal Bovine Serum (Gibco; 26400-044), 0.1 mM MEM Non-essential amino acids solution, 25 mM HEPES solution (Corning; 25-060-CI), 1 mM Sodium Pyruvate (Gibco; 11360-070), 200 μg/mL Zeocin selection reagent (Gibco; R25001), 50 μg/mL Hygromycin B (Gibco, 10687010), and 100 μg/mL Geneticin (G418 Sulfate) (Gibco, 10131035). U2OS cells were subcultured twice weekly by 0.05% Trypsin-EDTA treatment (Corning; 25-051-CI) and passaged to continue exponential growth phase for cell signaling assays. All cell cultures were maintained in cell culture incubators at 37° C. with 5% CO2. CHO-K1 CXCR4 cells (DiscoverX, Fremont, CA, USA) were used for cAMP inhibition assays and maintained as a monolayer culture in DMEM/F12 (Corning; 10-091-CV) supplemented with 10% Fetal Bovine Serum (Corning; 35-011-CV) and 100IU penicillin, […] streptomycin sulfate (Corning; 30-002-CI) and […] G418 (Gibco; 101310350. Cells were subculture 2 times weekly by o.o5% Trypsin-EDTA treatment (Corning; 25-051-CI) and passaged to continue exponential growth phase for cell signaling assays. All cell cultures were maintained in cell culture incubators at 37° C. with 5% CO2.CEM-CCRF cells (ATCC CCL-119) were used in both the migration and calcium flux assays and were cultured in growth media consisting of RPMI 1640 (Corning; 10-040-CV) supplemented with 10% Fetal Bovine Serum (Corning; 35-011-CV), and 100 IU penicillin, […] streptomycin sulfate (Corning; 30-002-CI). […] Cells were harvested for use in migration and calcium flux assays at 2.0×10^6 cells/mL to 2.5×10^6 cells/mL and resuspended in assay media to desired density for respective experiments.
Compounds and DMSO normalization to 0.5% were dispensed using the TECAN D300e digital dispenser into the wells of a 384-well white wall clear-bottom assay plate (Griener 781983). […] This cell suspension was dispensed at 20 μL per well into the assay plate and allowed to incubate overnight for approximately 18 hrs with compounds in cell culture incubator at 37° C. with 5% CO2. Following incubation, DMEM/F12 media was gently removed, then the Lance Ultra cAMP Kit (Perkin Elmer; TRF0263) was performed according to the supplier guidelines. […] Time-resolved fluorescence was measured on the BMG LABTECH CLARIOstar Plus (BMG LABTECH Inc., Cary, NC) using the Lance Ultra cAMP kit guidelines for excitation and emission. […]

Sequence of CXCR4 (P61073 whole entry): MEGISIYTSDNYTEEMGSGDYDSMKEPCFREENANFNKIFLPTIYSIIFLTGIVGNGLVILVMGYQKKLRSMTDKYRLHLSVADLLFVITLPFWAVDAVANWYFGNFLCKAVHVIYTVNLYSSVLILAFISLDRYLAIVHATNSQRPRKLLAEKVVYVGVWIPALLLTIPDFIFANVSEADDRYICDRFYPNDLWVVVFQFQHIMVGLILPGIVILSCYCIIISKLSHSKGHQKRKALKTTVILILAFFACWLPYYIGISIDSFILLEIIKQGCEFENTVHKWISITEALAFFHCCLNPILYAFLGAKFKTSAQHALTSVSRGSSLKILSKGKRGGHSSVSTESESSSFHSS

## CCOc1ccccc1-c1nnc2n1N=C(c1ccc(N3CCCC3)cc1)CS2 [Thiadiazine Entry 23, 3-(2-ethoxyphenyl)-6-(4-(pyrrolidin-1-yl)phenyl)-7H-[1,2,4]triazolo[3,4-b][1,3,4]thiadiazine]
Listed as UCUF-965
  cAMP inhibition activity: dose-dependent partial agonist response; also recorded: dose-dependent partial inhibition of forskolin-stimulated cAMP production; also recorded: did not inhibit the action of SDF-1α; also recorded: doubling the Emax
Log value, n=3
  cAMP log EC50: −7.3±0.2 M
read-out: cAMP maximal response (Emax) of SDF-1α potentiated by, pretreatment with 0.1 μM UCUF-965
  Emax: 110%
read-out: cAMP maximal response (Emax) of SDF-1α potentiated by, pretreatment with 1 μM UCUF-965
  Emax: 201%
read-out: cAMP maximal response (Emax) of SDF-1α potentiated by, pretreatment with 5 μM UCUF-965
  Emax: 209%
